In PMC5748279, “Novel Antitubercular 6-Dialkylaminopyrimidine Carboxamides from Phenotypic Whole-Cell High Throughput Screening of a SoftFocus Library: Structure–Activity Relationship and Target Identification Studies” (Journal of Medicinal Chemistry, 2017):
In brackets after ≈: the same amount, converted by molar mass. Several values for one entry are separate records, joined by “and”; a condition that tells them apart may be missing. Identical values can stand only once.

Assays:
[1] = test system: Mycobacterium tuberculosis (H37RvMa); assay: microbe, parasite or virus in culture; format: cell-based; conditions: for fold more potent in 7H9/ADC compared to 1 / MIC99 7H9/ADC: 7H9/ADC medium; for fold more potent in 7H9/ADC compared to 1 / fold more potent in GAST/Fe compared to 1: versus compound 1; for fold more potent in GAST/Fe compared to 1 / MIC99 GAST/Fe: GAST/Fe medium; for MIC: Mycobacterium tuberculosis, medium not stated
[2] = test system: Mycobacterium tuberculosis (H37RvMa); assay: microbe, parasite or virus in culture; set-up: MIC99 by standard broth microdilution against M. tuberculosis H37Rv; conditions: read-out: MIC99 7H9/ADC (æM)
physchem [3] = conditions: sheet table;; kinetic solubility, pH 7.4; aqueous buffer pH 7.4; Kinetic solubility at pH 7.4; read-out: Solubility (æM)
Method: (§1) The kinetic solubility assay was performed using a miniaturised shake flask method. 10 mM stock […]
(§2) DMSO, and to spike (1:50) duplicate aqueous samples of FaSSIF (simulating fasting state biorelevant media, pH 6.5), with a final DMSO concentration of 2%. After shaking for 2 hours at 25 °C, the solutions were filtered and analysed by means of HPLC,DAD (Agilent 1200 Rapid Resolution HPLC with a diode array detector). Best fit calibration curves were constructed using the calibration standards, which were used to determine the aqueous samples’ solubility.13
(§3) 4.2) Microsomal stability
(§4) The metabolic stability assay was performed in duplicate in a 96,well micro titre plate. The test compounds (0.1 µM) were incubated individually in mouse, rat and pooled human liver […]
(§5) the cofactor NADPH (1 mM). Reactions were quenched by adding 300 µL of ice cold acetonitrile containing internal standard (carbamazepine, 0.0236 µg/mL). Test compounds in the supernatant were analysed by means of LC,MS/MS (Agilent Rapid Resolution HPLC, AB SCIEX 4000 QTRAP MS) for the disappearance of parent compound. Metabolite searches were not conducted during the metabolic stability assay.14
(§6) 4.3) Plasma protein binding (PPB) assay
The plasma protein binding assay was performed in a 96,well micro titre plate with pooled human plasma, spiked with test compound (5 µM). […]

physchem [4] = format: physicochemical
Method: as §1, §2, §3, §4, §5, §6
The plasma protein binding assay was performed in a 96,well micro titre plate with pooled human plasma, spiked with test compound (5 µM). An aliquot was immediately removed and quenched using ice cold acetonitrile containing internal standard (carbamazepine, 0.0236 µg/mL), and placed in the freezer. This served as the total concentration sample. After pre,incubation (37 °C for 1 hour) duplicate aliquots of the spiked plasma were transferred to ultra,centrifugation tubes, […]

in vivo = conditions: male, C57/BL6, mouse
[5] = Caseum binding using surrogate caseum
[6] = format: in vitro ADME
Method: and ultracentrifuged for 4 hours (42000 rpm, 37 °C, Beckman Optima L,80XP). Analyte concentration of all compounds and sample types were determined by means of LC,MS/MS (Agilent Rapid Resolution HPLC, AB SCIEX 4000 QTRAP MS).
4.4) Lipophilicity (LogD7.4)
The lipophilicity assay was performed in triplicate using a shake,flask procedure. 10 mM stock solutions of each test compound were used to spike (100 µM) a 1:1 mixture of phosphate buffer (pH 7.4) and n,octanol. The solutions were shaken vigorously (1500 rpm) on an orbital shaker for 3 hours at room temperature. Thereafter the samples were centrifuged in order to fully separate the two immiscible fluids. The samples were analysed by HPLC,DAD (Agilent 1200 Rapid Resolution HPLC with a diode array detector) and the amount of compound in the buffer and n, octanol were used to determine the partition coefficient, LogD7.4.15
4.5) Parallel Artificial Membrane Permeability Assay (PAMPA):
The PAMPA assay was performed in triplicate in 96,well MultiScreen Filter plates (Millipore, 0.4 µM PCTE Membrane). Membrane filters were pre,coated with 5% hexadecane in hexane and allowed to dry prior to the assay. Membrane integrity marker, Lucifer yellow was added to the apical wells of the pre,coated MultiScreen plate donor/drug solutions containing test compound.
Phosphate buffer (pH7.4) was added to the 96,well acceptor plate. 10 mM test compound was used to spike (1 µM) the donor buffer at physiologically relevant pH's (pH 4, 6.5 and 8), the donor plate slotted into the acceptor plate and incubated (4 hours at room temperature) with gentle shaking (40,50 rpm). Following the incubation, sample from the acceptor wells and theoretical equilibrium wells were transferred to the analysis plate and matrix matched with blank donor buffer. Acetonitrile containing internal standard (carbamazepine, 0.0236 µg/mL) was added to all samples and they were analysed by LC,MS/MS (Agilent Rapid Resolution HPLC, AB SCIEX 4500 MS). The normalised (analyte/internal) peak areas were used to calculate the apparent permeability (Papp). Membrane integrity was assessed by calculating the Papp of Lucifer Yellow […]
chemosensitivity. […]. Thus only viable cells […]
formazan. Formazan crystals are dissolved in DMSO. The test samples were tested in triplicate on […]
experiment. […] Emetine was used […]
as the reference drug in all experiments. The initial concentration of emetine was 100 µg/mL, […]
lowest being 0.001 µg/mL. […] The […]
the cell viability (data not shown).
GraphPad Prism v.4 software. […]
expressing the full length hERG channel. Single cell ionic currents were measured in the […]

[7] = test system: PiniB-LUX reporter (Mtb cell wall biosynthesis); format: cell-based; conditions: luminescence over 7 days, INH control
[8] = test system: PrecA-LUX reporter (genotoxic compounds); format: cell-based; conditions: luminescence over 7 days, CIPRO control
[9] = test system: Mtb::gfp strain (H37RvMa::pMSP12GFP); format: cell-based; conditions: supplementary csv; for MIC99 7H9/ADC (values marked c: GFP strain based assay): 7H9/ADC medium; for MIC99 GAST/Fe (values marked c: GFP strain based assay): GAST/Fe medium
BCG_3193 (Rv3169) [10] = biological target: T1, BCG_3193 (Rv3169) (Mycobacterium bovis BCG, UniProt A0A1R3Y3B6); assay: biochemical; format: binding
T1 sequence (A0A1R3Y3B6 1-374): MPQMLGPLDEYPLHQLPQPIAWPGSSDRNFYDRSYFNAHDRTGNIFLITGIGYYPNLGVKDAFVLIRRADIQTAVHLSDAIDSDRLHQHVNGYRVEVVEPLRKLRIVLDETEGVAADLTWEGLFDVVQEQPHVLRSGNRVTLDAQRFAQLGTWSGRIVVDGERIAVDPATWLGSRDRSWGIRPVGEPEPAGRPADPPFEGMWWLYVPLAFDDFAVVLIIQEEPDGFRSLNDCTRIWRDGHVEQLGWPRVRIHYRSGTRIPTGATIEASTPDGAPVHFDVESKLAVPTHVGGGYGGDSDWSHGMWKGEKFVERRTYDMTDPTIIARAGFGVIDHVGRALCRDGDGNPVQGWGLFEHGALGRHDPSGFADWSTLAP

BCG_3827 (Rv3768) = format: binding, Mycobacterium bovis BCG
BCG_3193 (Rv3169) [11] = biological target: T1, BCG_3193 (Rv3169); assay: biochemical; set-up: species or system Mycobacterium bovis BCG extract; conditions: bead competition in BCG extract

CN(Cc1ccc(F)cc1)c1cc(C(=O)Nc2ccccc2)ncn1 [Compound 10, 6-((4-Fluorobenzyl)(methyl)amino)-N-phenylpyrimidine-4-carboxamide]
fold more potent in 7H9/ADC compared to 1 [1]: ≥ 4 fold
fold more potent in GAST/Fe compared to 1 [1]: ≥ 2 fold

[C-]#[N+]c1ccc(CN(C)c2cc(C(=O)Nc3ccccc3)ncn2)cc1 [compound 16]
MIC99 [2]: > 50 µM
solubility at 2 h (physchem [3]): < 5 µM

CN(Cc1ccc(F)cc1)c1cc(C(=O)Nc2nncs2)ncn1 [Compound 51, 6-((4-Fluorobenzyl)(methyl)amino)-N-(1,3,4-thiadiazol-2-yl)pyrimidine-4-carboxamide]
solubility kinetic at 2 h (physchem [4]; pH 7.4, pH 7.4): > 100 µM
AUC(0-inf) at 24 h (in vivo; iv, 5 mg/kg): 22.1 µM·h
clearance at 24 h (in vivo; iv, 5 mg/kg): 11.1 mL/min/kg
half-life at 24 h (in vivo; iv, 5 mg/kg): 5.1 h
AUC(0-inf) at 24 h (in vivo; po, 20 mg/kg): 17 µM·h
half-life at 24 h (in vivo; po, 20 mg/kg): 4.4 h
caseum distribution unbound [5]: 0.5%

CN(Cc1ccc(C(F)(F)F)nc1)c1cc(C(=O)Nc2ccccc2)ncn1 [Compound 20, 6-(Methyl((6-(trifluoromethyl)pyridin-3-yl)methyl)amino)-N-phenylpyrimidine-4-carboxamide]
PAMPA log Papp [6]: –3.8
AUC(0-inf) at 24 h (in vivo; iv, 5 mg/kg): 19.6 µM·h
clearance at 24 h (in vivo; iv, 5 mg/kg): 11.2 mL/min/kg
AUC(0-inf) at 24 h (in vivo; po, 20 mg/kg): 33.3 µM·h

COc1ccc(NC(=O)c2cc(N(C)Cc3cccc(F)c3)ncn2)cc1 [Compound 13, 6-((3-Fluorobenzyl)(methyl)amino)-N-(4-methoxyphenyl)pyrimidine-4-carboxamide]
PiniB-LUX reporter response [7]: a weak, delayed response
PrecA-LUX reporter response [8]: delayed (Day 3 onwards) induction of luminescence

CN(Cc1ccc(F)cc1)c1cc(C(=O)Nc2ccc(N3CCOCC3)cc2)ncn1 [Compound 45, 6-((4-Fluorobenzyl)(methyl)amino)-N-(4-morpholinophenyl)pyrimidine-4-carboxamide]
MIC [1]: < 5 µM

CN(Cc1cccnc1)c1cc(C(=O)Nc2ccccc2)ncn1 [Compound 19, 6-(Methyl(pyridin-3-ylmethyl)amino)-N-phenylpyrimidine-4-carboxamide]
MIC99 7H9/ADC (values marked c: GFP strain based assay) [9]: 48c æM
MIC99 GAST/Fe (values marked c: GFP strain based assay) [9]: 37c æM

CN(Cc1ccc(C(F)(F)F)nc1)c1cc(C(=O)Nc2ccc(N3CCOCC3)cn2)ncn1 [Compound 46, 6-(Methyl((6-(trifluoromethyl)pyridin-3-yl)methyl)amino)-N-(5-morpholinopyridin-2-yl)pyrimidine-4-carboxamide]
MIC [1]: 2 to 3 µM (≈ 0.947 to 1.42 µg/mL)

CN1CCN(c2cccc(NC(=O)c3cc(N(C)Cc4ccc(F)cc4)ncn3)c2)CC1 [Compound 42, 6-((4-Fluorobenzyl)(methyl)amino)-N-(3-(4-methylpiperazin-1-yl)phenyl)pyrimidine-4-carboxamide]
MIC values dropping by fold ([1]; 3-position versus 4-position N-methylpiperazine): 10- to 30 fold

CN1CCN(c2ccc(NC(=O)c3cc(N(C)Cc4ccc(C(F)(F)F)cc4)ncn3)cc2)CC1 [Compound 40, 6-(Methyl(4-(trifluoromethyl)benzyl)amino)-N-(4-(4-methylpiperazin-1-yl)phenyl)pyrimidine-4-carboxamide]
Hill (BCG_3193 (Rv3169) [10]): 1.62
binding of BCG_3193 to the compound beads in presence of free compound (BCG_3193 (Rv3169) [10]): reduced binding
IC50 (BCG_3193 (Rv3169) [10]; IC50): 1.1 µM
Kd (BCG_3193 (Rv3169) [10]; apparent dissociation constant Kd^app for BCG_3193): 0.61 µM and 0.69 µM
IC50 (BCG_3193 (Rv3169) [10]; pIC50): 1.1 µM
IC50 (BCG_3827 (Rv3768)): 10 µM
binding of BCG_3827 to the compound beads in presence of free compound (BCG_3827 (Rv3768)): reduced binding
Kd (BCG_3827 (Rv3768); read-out: apparent dissociation constant Kd^app for BCG_3827): 2.1 µM and 3.8 µM
PAMPA log Papp [6]: –4.5
AUC(0-inf) at 24 h (in vivo; iv, 5 mg/kg): 9 µM·h
half-life at 24 h (in vivo; iv, 5 mg/kg): 10.3 h
AUC(0-inf) at 24 h (in vivo; po, 20 mg/kg): 9.4 µM·h
half-life at 24 h (in vivo; po, 20 mg/kg): 15.8 h
IC50 (BCG_3193 (Rv3169) [11]; IC50, Experiment ID=X028553): 1.7 µM
IC50 (BCG_3193 (Rv3169) [11]; IC50, Experiment ID=X028554): 1.5 µM
caseum distribution unbound [5]: 0.1%

CN(Cc1ccc(C(F)(F)F)cc1)c1cc(C(=O)NC2CCCCC2)ncn1 [Compound 34, N-Cyclohexyl-6-(methyl(4-(trifluoromethyl)benzyl)amino)pyrimidine-4-carboxamide]
MIC99 7H9/ADC (values marked c: GFP strain based assay) [9]: >125c æM
MIC99 GAST/Fe (values marked c: GFP strain based assay) [9]: 12c æM

6-(Benzyloxy)-N-phenylpyrimidine-4-carboxamide [Compound 4]
MIC99 7H9/ADC [1]: >160 µM
MIC99 7H9/ADC ([1]; supplementary csv): >160 æM

CN(Cc1ccc(C(F)(F)F)cc1)c1cc(C(=O)Nc2ccccc2)ncn1 [Compound 12, 6-(Methyl(4-(trifluoromethyl)benzyl)amino)-N-phenylpyrimidine-4-carboxamide]
PiniB-LUX reporter response [7]: a weak, delayed response
PrecA-LUX reporter response [8]: delayed (Day 3 onwards) induction of luminescence
PAMPA log Papp [6]: –4.9
AUC(0-inf) at 24 h (in vivo; iv, 5 mg/kg): 20.4 µM·h
clearance at 24 h (in vivo; iv, 5 mg/kg): 11.3 mL/min/kg
half-life at 24 h (in vivo; iv, 5 mg/kg): 4.6 h
AUC(0-inf) at 24 h (in vivo; po, 20 mg/kg): 22.2 µM·h
half-life at 24 h (in vivo; po, 20 mg/kg): 8.7 h
caseum distribution unbound [5]: 0.1%

CN(Cc1ccc(Cl)cc1)c1cc(C(=O)Nc2ccccc2)ncn1 [Compound 11, 6-((4-Chlorobenzyl)(methyl)amino)-N-phenylpyrimidine-4-carboxamide]
fold more potent in 7H9/ADC compared to 1 [1]: ≥ 4 fold
fold more potent in GAST/Fe compared to 1 [1]: ≥ 2 fold

6-((4-Cyanobenzyl)(methyl)amino)-N-phenylpyrimidine-4-carboxamide [Compound 16]
MIC99 7H9/ADC [1]: >50 µM
MIC99 7H9/ADC ([1]; supplementary csv): >50 æM
MIC99 GAST/Fe [1]: 20 µM
MIC99 GAST/Fe ([1]; supplementary csv): 20 æM
solubility kinetic at 2 h (physchem [4]; pH 7.4): <5 µM
Solubility (physchem [4]; supplementary csv): <5 æM

CN(Cc1ccc(S(C)(=O)=O)cc1)c1cc(C(=O)Nc2ccccc2)ncn1 [Compound 17, 6-(Methyl(4-(methylsulfonyl)benzyl)amino)-N-phenylpyrimidine-4-carboxamide]
MIC99 7H9/ADC (values marked c: GFP strain based assay) [9]: >125c æM
MIC99 GAST/Fe (values marked c: GFP strain based assay) [9]: >125c æM

O=C(Nc1ccccc1)c1cc(OCC2CCCCC2)ncn1 [compound 4]
MIC99 [2]: > 160 µM
